The source of these data is ChEMBL document CHEMBL1201862, “PubChem BioAssay data set” (2004).

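Briefly, cells in 96-well plates were exposed to five compound concentrations for 48 h, and endpoints were estimated by linear interpolation. GI50 is the concentration that inhibits growth by half.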 Active and inactive are the calls of the source. Rule as the data show it: active = GI50 up to about 1.1 µM and inactive = higher.

Test systems include HCT-116; SF-295; HOP-62; M14; NCI-H23; HOP-92; OVCAR-8; SR; EKVX; RXF 393; HCT-15; UACC-62; SNB-19; OVCAR-3; HCC 2998; COLO 205; Malme-3M; SNB-75; A498.
Common to all, as to test: DTP human tumour cell line panel, 48 h

The GI50 is the concentration that inhibits growth by half. For the compound `O=C(O/N=C1/CCCC/C1=C\c1ccccc1)c1ccc(Cl)c(Cl)c1`, the GI50 was 13.6 µM (inactive) in the assay with HCT-116; 31.8 µM (inactive) in the assay with SF-295; 52.5 µM (inactive) in the assay on HOP-62; > 100 µM (inactive) with M14; 19.2 µM (inactive) with NCI-H23; 26.8 µM (inactive) in the assay on HOP-92. Besides, the GI50 was 17.9 µM (inactive) in the assay on OVCAR-8; 8.2 µM (inactive) with SR; 38.3 µM (inactive) in the assay on EKVX; 27.7 µM (inactive) in the assay with RXF 393; 33.3 µM in the assay with HCT-15; 17.1 µM (inactive) in the assay with UACC-62. In addition, the GI50 in the assay with SNB-19 is 69.7 µM (inactive); in the assay on OVCAR-3 it was 21 µM (inactive); in the assay on HCC 2998, > 100 µM (inactive); with COLO 205, 28.2 µM (inactive); in the assay with Malme-3M, 0.443 µM (active); with SNB-75, 27.5 µM (inactive).

Take `CCNC(=O)c1ccc(C)c(/N=N/N(C)C)c1`: the GI50 in the assay on HCT-116, in the assay with SF-295, in the assay with HOP-62, in the assay on M14, in the assay on NCI-H23 and with HOP-92 was > 100 µM (inactive) in each case. For the same compound, the GI50 in the assay with OVCAR-8 was > 100 µM (inactive); with EKVX it was > 100 µM (inactive); in the assay with HCT-15, > 100 µM; with UACC-62, > 100 µM (inactive); in the assay on SNB-19, > 100 µM (inactive); with OVCAR-3 it was > 100 µM (inactive). Also, in the assay on HCC 2998, the GI50 was > 100 µM (inactive).

Consider `CC(C)(C)C1CC[C@H]2c3c([nH]c4ccccc34)[C@H]3C(=O)N(c4ccc(F)cc4)C(=O)[C@H]3[C@H]2C1` (some centres not stated), for which the GI50 is 11.6 µM (inactive) in the assay on HCT-116; 14.8 µM (inactive) with SF-295; 16.5 µM (inactive) with HOP-62; 18.5 µM (inactive) in the assay with M14; 18.6 µM (inactive) in the assay on NCI-H23; 28.1 µM (inactive) in the assay on HOP-92. The GI50 was 12.1 µM (inactive) with OVCAR-8; 16.3 µM (inactive) in the assay on EKVX; 27.4 µM (inactive) in the assay on RXF 393; 29.9 µM (inactive) with A498; 20.7 µM in the assay with HCT-15; 15.5 µM (inactive) with UACC-62. Also, the GI50 in the assay with SNB-19 was 15.9 µM (inactive); in the assay on OVCAR-3 it was 16.7 µM (inactive); in the assay with HCC 2998, 13.6 µM (inactive); with COLO 205, 14.5 µM (inactive); in the assay on Malme-3M, 16.9 µM (inactive); with SNB-75, 10.5 µM (inactive).

Turning to `COc1ccc2c3c1O[C@]1(C)C34CCN(C)C(C2)C42C=C[C@@]1(OC)c1c(O)ccc(O)c12`, the GI50 was > 100 µM (inactive) in the assay with HCT-116; > 100 µM (inactive) in the assay with SF-295; > 100 µM (inactive) in the assay on HOP-62; > 100 µM (inactive) in the assay on NCI-H23; 59.3 µM (inactive) in the assay with HOP-92; > 100 µM (inactive) in the assay with OVCAR-8. Further, the GI50 in the assay with EKVX, in the assay on RXF 393, with A498, in the assay with SNB-19, in the assay on OVCAR-3 and in the assay on HCC 2998 was > 100 µM (inactive) throughout. The GI50 is > 100 µM (inactive) in the assay on COLO 205, 64.7 µM (inactive) in the assay on Malme-3M and > 100 µM (inactive) with SNB-75.

For the compound `NC1=C(NC(=O)Cc2ccccc2F)C(=O)c2ccccc2C1=O`, the GI50 with HCT-116 was 44 µM (inactive); with SF-295, 32.6 µM (inactive); with HOP-62, 25.5 µM (inactive); in the assay on M14, > 100 µM (inactive); in the assay on NCI-H23, 40.6 µM (inactive); with HOP-92, 22.3 µM (inactive). The GI50 in the assay with OVCAR-8 is 39.2 µM (inactive); in the assay with EKVX it was 59.3 µM (inactive); in the assay with RXF 393 it was 34.4 µM (inactive); in the assay on HCT-15 it was 24.2 µM; with UACC-62 it was 37.8 µM (inactive); with SNB-19, 35.8 µM (inactive). For the same compound, the GI50 in the assay with OVCAR-3 is 8.26 µM (inactive); in the assay on HCC 2998 it was > 100 µM (inactive); with COLO 205, > 100 µM (inactive); in the assay with Malme-3M it was 13.6 µM (inactive); in the assay on SNB-75 it was 18.8 µM (inactive).

As for `O=C(Nc1ccccn1)/C(=C\C(=O)c1ccc(Cl)cc1)Nc1ccccc1`, the GI50 in the assay with SF-295, with HOP-62, with M14, with NCI-H23, in the assay with HOP-92 and in the assay on OVCAR-8 was > 10 µM (inactive) throughout. In addition, the GI50 in the assay on SR is > 10 µM (inactive); with EKVX, > 10 µM (inactive); in the assay on RXF 393 it was > 10 µM (inactive); in the assay with HCT-15 it was > 10 µM; in the assay on UACC-62 it was > 10 µM (inactive); in the assay with HCC 2998, > 10 µM (inactive). The values for the GI50 in the assay on COLO 205, with Malme-3M and in the assay with SNB-75 were > 10 µM (inactive), > 10 µM (inactive) and 5.68 µM (inactive), respectively.

For the compound `CCOC(=O)CSc1[nH]c(NC(=S)Nc2ccccc2)c(C(N)=O)c1C(N)=O`, the GI50 in the assay with SF-295, with HOP-62, in the assay with M14, in the assay on NCI-H23, with HOP-92 and in the assay on OVCAR-8 was > 10 µM (inactive) in each case. The GI50 in the assay on SR is 3.67 µM (inactive); in the assay with EKVX, > 10 µM (inactive); with RXF 393, > 10 µM (inactive); with HCT-15 it was > 10 µM; in the assay on UACC-62, > 10 µM (inactive); with HCC 2998, 6.28 µM (inactive). In addition, the GI50 in the assay with COLO 205, with Malme-3M and with SNB-75 was > 10 µM (inactive) each time.

With `CC1=C(C(=O)Nc2ccccc2C)C(c2ccc(N(C)C)cc2)C(C(=O)Nc2ccccc2C)=C(C)N1`, the GI50 is 55.3 µM (inactive) in the assay with HCT-116; > 100 µM (inactive) in the assay on SF-295; 28.6 µM (inactive) with HOP-62; 58.7 µM (inactive) with NCI-H23; 88.5 µM (inactive) in the assay with OVCAR-8; > 100 µM (inactive) with EKVX. Moreover, the GI50 in the assay on RXF 393 is 35.5 µM (inactive); in the assay on A498, > 100 µM (inactive); with HCT-15, 67.9 µM; in the assay with UACC-62 it was 44.3 µM (inactive); in the assay on SNB-19, > 100 µM (inactive); with OVCAR-3, > 100 µM (inactive). In addition, the values for the GI50 with HCC 2998, in the assay on COLO 205 and in the assay with Malme-3M were 34.5 µM (inactive), > 100 µM (inactive) and 82.6 µM (inactive), respectively.

With `O=S(=O)(SCCCCSS(=O)(=O)c1ccc(Cl)cc1)c1ccc(Cl)cc1`, the GI50 is 11 µM (inactive) in the assay with HCT-116; 3.92 µM (inactive) in the assay on SF-295; 20.1 µM (inactive) in the assay with HOP-62; 14.6 µM (inactive) in the assay with M14; 10.3 µM (inactive) in the assay with NCI-H23; 8.51 µM (inactive) with HOP-92. Moreover, the GI50 in the assay with OVCAR-8 was 12.2 µM (inactive); in the assay with EKVX, 4.67 µM (inactive); in the assay on RXF 393, 16.7 µM (inactive); with A498, 16.6 µM (inactive); with HCT-15, 13.4 µM; with UACC-62, 12.2 µM (inactive). For the same compound, the GI50 in the assay on SNB-19 is 10.2 µM (inactive); in the assay on OVCAR-3, 14.7 µM (inactive); with HCC 2998, 18.7 µM (inactive); with COLO 205 it was 14.9 µM (inactive); in the assay with Malme-3M, 15.4 µM (inactive); in the assay on SNB-75 it was 11.4 µM (inactive).

Take `Nc1nc(N)c(-c2ccccc2)c(C(=O)Nc2ccccc2)n1`: the GI50 with HCT-116, in the assay on M14, with NCI-H23, in the assay with HOP-92, in the assay on OVCAR-8 and in the assay with EKVX was > 100 µM (inactive) in each case. Also, the GI50 is > 100 µM (inactive) in the assay with RXF 393; > 100 µM (inactive) in the assay with A498; > 100 µM in the assay with HCT-15; > 100 µM (inactive) in the assay with UACC-62; > 100 µM (inactive) with SNB-19; > 100 µM (inactive) in the assay with OVCAR-3. Moreover, the GI50 in the assay on COLO 205, in the assay with Malme-3M and with SNB-75 was > 100 µM (inactive) in each case.

For the compound `COc1ccccc1NC(=O)C1=C(C)NC(C)=C(C(=O)Nc2ccccc2OC)C1c1ccccc1[N+](=O)[O-]`, the GI50 with HCT-116 was > 100 µM (inactive); with SF-295, 32.4 µM (inactive); in the assay with HOP-62 it was 33.2 µM (inactive); in the assay with M14, 16.1 µM (inactive); with NCI-H23, 16.8 µM (inactive); in the assay on HOP-92 it was 25.6 µM (inactive). The GI50 with OVCAR-8 was 19.2 µM (inactive); in the assay on SR, 11.5 µM (inactive); in the assay on EKVX, 64.1 µM (inactive); with RXF 393, > 100 µM (inactive); in the assay with HCT-15 it was 14.3 µM; in the assay with UACC-62, 21.3 µM (inactive). The GI50 in the assay on OVCAR-3 was 18.5 µM (inactive); in the assay with HCC 2998, 18.7 µM (inactive); in the assay on COLO 205 it was 16.9 µM (inactive); in the assay on Malme-3M, 13.9 µM (inactive); in the assay on SNB-75 it was 42.1 µM (inactive).

Turning to `COc1ccc(NCc2cc(OC)c(OC)c(OC)c2)cc1`, the GI50 in the assay on HCT-116 was 0.367 µM (active); in the assay with SF-295 it was 0.242 µM (active); in the assay with HOP-62 it was 0.378 µM (active); with M14, 0.457 µM (active); with NCI-H23 it was 0.513 µM (active); in the assay on HOP-92 it was 2.15 µM (inactive). The GI50 with OVCAR-8 is 0.851 µM (active); in the assay on EKVX, 4.97 µM (inactive); in the assay on RXF 393 it was 0.342 µM (active); in the assay on A498 it was 0.543 µM (active); in the assay with HCT-15 it was 0.217 µM; in the assay with UACC-62 it was 0.271 µM (active). The GI50 is 1.19 µM (inactive) in the assay on SNB-19, 0.34 µM (active) in the assay on OVCAR-3, 0.277 µM (active) with HCC 2998 and 0.233 µM (active) with COLO 205.
